Structures are written as SMILES. Where two headings read alike, the source gives them in different places.

Assay [1] relates to sigma σ receptor. Description: Binding assay σ (non-selective), [3H]DTG, rat cerebral cortex. The settings on record: percent inhibition of control specific binding; compounds tested at 1×10^−6 M. In outline: (§1)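 Binding read by scintillation counting. Non-specific component defined by excess unlabelled ligand and removed from total counts. Compounds at 1×10^−6 M.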
For assay [2], the target named is T1, muscarinic M3 receptor (Homo sapiens, UniProt P20309).
T1 construct: expressed in transfected cells; host or cells: CHO cells
Description: Binding assay M3 (h), [3H]4-DAMP, CHO cells. To be noted: read-out: M3 [%]. In outline:
as §1

Assay [3] concerns the target serotoninergic 5-HT7 receptor (Homo sapiens, UniProt P34969). Description: Cellular functional assay, serotoninergic 5-HT7 receptor (agonism/antagonism). Type of assay: cell-based. The settings on record: for activation at 1 µM: read-out: 5-HT7-ag [%]; for inhibition at 1 µM: read-out: 5-HT7-antag. [%]. The procedure:
(§2) The compounds were tested at the concentration of 1×10^−6M.
(§3) In the Tables ag refers to agonism, and antag to antagonism).

In assay [4] the target is T2, adrenergic α2C receptor (Homo sapiens, UniProt P18825).
T2 sequence (P18825 1-462): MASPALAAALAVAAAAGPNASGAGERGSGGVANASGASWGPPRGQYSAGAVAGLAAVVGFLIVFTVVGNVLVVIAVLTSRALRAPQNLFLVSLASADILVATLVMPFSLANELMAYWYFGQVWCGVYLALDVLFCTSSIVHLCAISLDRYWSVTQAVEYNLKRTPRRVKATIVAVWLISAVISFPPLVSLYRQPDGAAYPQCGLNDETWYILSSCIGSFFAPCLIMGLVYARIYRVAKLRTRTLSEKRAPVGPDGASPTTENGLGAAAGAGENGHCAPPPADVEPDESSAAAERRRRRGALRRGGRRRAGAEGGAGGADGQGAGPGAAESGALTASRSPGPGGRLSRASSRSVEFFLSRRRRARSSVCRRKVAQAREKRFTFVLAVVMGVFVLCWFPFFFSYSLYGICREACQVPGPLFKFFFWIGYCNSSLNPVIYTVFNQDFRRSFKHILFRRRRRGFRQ
Description: Binding assay α2C (h), [3H]RX 821002, CHO cells. Also noted: expressed in transfected cells; host or cells: CHO cells. To be noted: read-out: α2C [%]. The procedure, abridged:
as §1

The target in assay [5] is T3, dopaminergic D2 receptor (Homo sapiens, UniProt P14416). Description: Binding assay D2S (h), [3H]methyl-spiperone, HEK-293 cells. The settings on record: read-out: D2 [%]. Also noted: expressed in transfected cells; host or cells: HEK-293 cells. In outline: as §1
Target sequence in this assay (P14416 1-414 isoform P14416-2): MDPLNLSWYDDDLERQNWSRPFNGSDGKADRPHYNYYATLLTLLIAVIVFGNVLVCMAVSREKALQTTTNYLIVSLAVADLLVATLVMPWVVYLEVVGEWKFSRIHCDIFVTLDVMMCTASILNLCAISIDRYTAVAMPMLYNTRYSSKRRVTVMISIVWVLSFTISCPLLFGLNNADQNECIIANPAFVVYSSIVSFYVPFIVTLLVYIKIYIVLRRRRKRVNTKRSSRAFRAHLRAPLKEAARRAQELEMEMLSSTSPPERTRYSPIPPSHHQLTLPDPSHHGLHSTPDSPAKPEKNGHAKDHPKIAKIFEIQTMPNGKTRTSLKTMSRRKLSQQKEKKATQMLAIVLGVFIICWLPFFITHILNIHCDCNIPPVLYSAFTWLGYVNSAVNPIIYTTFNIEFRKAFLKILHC
In assay [6] the target is T4, serotoninergic 5-HT1A receptor (Homo sapiens, UniProt P08908).
T4 sequence (P08908 1-422): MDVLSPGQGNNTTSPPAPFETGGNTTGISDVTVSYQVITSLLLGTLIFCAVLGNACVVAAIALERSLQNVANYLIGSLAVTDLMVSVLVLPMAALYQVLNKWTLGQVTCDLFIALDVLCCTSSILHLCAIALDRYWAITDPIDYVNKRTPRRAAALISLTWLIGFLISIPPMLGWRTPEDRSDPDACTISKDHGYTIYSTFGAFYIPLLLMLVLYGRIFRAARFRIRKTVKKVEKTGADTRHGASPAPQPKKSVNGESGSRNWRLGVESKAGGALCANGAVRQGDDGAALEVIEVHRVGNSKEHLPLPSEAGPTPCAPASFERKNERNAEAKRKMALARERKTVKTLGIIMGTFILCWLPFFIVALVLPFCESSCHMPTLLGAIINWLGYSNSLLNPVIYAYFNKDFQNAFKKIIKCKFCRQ
Description: Binding assay 5-HT1A (h), [3H]8-OH-DPAT, HEK-293 cells. More on the design: expressed in transfected cells; host or cells: HEK-293 cells. The settings on record: read-out: 5-HT1A. In outline: as §1

The target of assay [7] is histaminergic H1 receptor (Homo sapiens, UniProt P35367). Description: Binding assay H1 (h), [3H]pyrilamine, HEK-293 cells. The settings on record: read-out: H1 [%]. Also noted: expressed in transfected cells; host or cells: HEK-293 cells. The procedure, abridged: as §1
In assay [8] the target is T3, dopaminergic D2 receptor. Description: Cellular functional assay, dopaminergic D2 receptor (agonism/antagonism). Type of assay: cell-based. To be noted: HEK293; for activation at 1 µM: agonist effect, percent of control specific agonist response (3 μM dopamine for control), 1×10^−6 M, D2S (h), HEK-293 cells, read-out: D2-ag [%]; for inhibition at 1 µM: read-out: D2-antag. [%]. The procedure:
as §2, §3
Target sequence in this assay (P14416 whole entry): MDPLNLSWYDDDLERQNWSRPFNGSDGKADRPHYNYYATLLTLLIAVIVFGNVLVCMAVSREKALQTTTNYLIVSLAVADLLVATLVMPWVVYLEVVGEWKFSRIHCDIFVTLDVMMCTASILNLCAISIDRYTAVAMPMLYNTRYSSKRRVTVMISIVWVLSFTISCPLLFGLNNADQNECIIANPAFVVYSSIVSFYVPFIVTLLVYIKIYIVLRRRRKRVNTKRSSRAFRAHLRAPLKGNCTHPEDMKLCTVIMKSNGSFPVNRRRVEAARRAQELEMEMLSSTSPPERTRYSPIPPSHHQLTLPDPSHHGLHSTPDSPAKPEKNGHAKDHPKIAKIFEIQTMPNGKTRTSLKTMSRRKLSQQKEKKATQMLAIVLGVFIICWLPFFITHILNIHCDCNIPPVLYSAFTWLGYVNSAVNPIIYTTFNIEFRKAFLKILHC

The target in assay [9] is T2, adrenergic α2C receptor. Description: Cellular functional assay, adrenergic α2C receptor (agonism/antagonism). Type of assay: cell-based. The settings on record: for activation at 1 µM: agonist effect, percent of control specific agonist response, compounds tested at 1×10^−6M, read-out: α2C −ag [%]; for inhibition at 1 µM: read-out: α2C −antag. [%]. The procedure:
as §2, §3

Assay [10] has as its target T5, adrenergic α1A receptor (Homo sapiens, UniProt P35348).
T5 sequence (P35348 1-466): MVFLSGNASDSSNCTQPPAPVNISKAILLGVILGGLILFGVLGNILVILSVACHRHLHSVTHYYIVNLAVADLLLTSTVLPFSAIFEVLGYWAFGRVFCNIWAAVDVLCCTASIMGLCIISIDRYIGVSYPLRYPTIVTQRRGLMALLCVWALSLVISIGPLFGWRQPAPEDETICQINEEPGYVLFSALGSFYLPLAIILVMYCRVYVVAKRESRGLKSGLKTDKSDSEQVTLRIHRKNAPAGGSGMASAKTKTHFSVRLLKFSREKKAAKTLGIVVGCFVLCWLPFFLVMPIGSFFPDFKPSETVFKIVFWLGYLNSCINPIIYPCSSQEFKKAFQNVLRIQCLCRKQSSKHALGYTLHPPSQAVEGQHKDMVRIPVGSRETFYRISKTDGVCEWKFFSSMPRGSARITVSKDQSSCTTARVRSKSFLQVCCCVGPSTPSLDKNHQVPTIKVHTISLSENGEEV
Description: Cellular functional assay, adrenergic α1A receptor (agonism/antagonism). Type of assay: cell-based. To be noted: for activation at 1 µM: agonist effect, percent of control specific agonist response, compounds tested at 1×10^−6M, read-out: α1A -ag [%]; for inhibition at 1 µM: read-out: α1A -antag. [%]. The procedure: […]. The compounds were tested at the concentration of 1×10^−6M.
Conditions and methodology (by reference to the literature) of cellular functional assays are given in Table 13 and the tests results for representative compounds are given in Table 14 (dopaminergic receptor D2), in Table 15 (dopaminergic receptor D3), in Table 16 (serotoninergic receptor 5-HT1A), in Table 17 (serotoninergic receptor 5-HT2A), in Table 18 (serotoninergic receptor 5-HT6), in Table 19 (serotoninergic receptor 5-HT7), in Table 20 (adrenergic α1 receptor), in Table 21 (adrenergic α2C receptor), in Table 22 (histaminergic H1 receptor) and in Table 23 (serotoninergic 5-HT2C receptor). In the Tables ag refers to agonism, and antag to antagonism).

Where [11] appears, read: agonist effect, percent of control specific agonist response, compounds tested at 1×10^−6M.

Chain of serotoninergic 5-HT7 receptor (P34969 whole entry): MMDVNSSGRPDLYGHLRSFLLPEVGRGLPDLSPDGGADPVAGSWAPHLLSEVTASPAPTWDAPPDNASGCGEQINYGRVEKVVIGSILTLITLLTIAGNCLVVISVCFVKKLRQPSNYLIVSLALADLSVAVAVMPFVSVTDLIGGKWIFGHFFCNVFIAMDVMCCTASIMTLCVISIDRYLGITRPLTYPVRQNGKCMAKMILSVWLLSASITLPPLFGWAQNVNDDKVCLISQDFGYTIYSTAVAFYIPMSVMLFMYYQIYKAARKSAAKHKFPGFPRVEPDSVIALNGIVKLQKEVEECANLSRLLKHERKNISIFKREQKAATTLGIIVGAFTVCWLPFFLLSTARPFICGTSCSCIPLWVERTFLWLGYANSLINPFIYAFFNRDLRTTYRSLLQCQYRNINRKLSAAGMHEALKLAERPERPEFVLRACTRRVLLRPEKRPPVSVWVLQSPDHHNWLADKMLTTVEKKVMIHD
Chain of histaminergic H1 receptor (P35367 whole entry): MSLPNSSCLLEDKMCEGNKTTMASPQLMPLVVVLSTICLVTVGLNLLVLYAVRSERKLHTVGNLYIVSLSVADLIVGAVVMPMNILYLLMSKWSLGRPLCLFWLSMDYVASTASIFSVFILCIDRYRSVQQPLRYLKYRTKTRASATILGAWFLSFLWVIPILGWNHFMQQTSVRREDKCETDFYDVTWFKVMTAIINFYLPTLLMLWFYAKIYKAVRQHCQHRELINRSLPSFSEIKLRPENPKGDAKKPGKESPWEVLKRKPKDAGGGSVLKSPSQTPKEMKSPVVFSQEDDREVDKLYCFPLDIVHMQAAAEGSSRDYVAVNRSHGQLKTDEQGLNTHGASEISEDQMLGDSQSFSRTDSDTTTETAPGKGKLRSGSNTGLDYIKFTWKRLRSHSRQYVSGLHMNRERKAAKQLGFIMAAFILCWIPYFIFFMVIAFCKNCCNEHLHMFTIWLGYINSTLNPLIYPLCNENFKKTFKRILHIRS
T1 sequence (P20309 whole entry): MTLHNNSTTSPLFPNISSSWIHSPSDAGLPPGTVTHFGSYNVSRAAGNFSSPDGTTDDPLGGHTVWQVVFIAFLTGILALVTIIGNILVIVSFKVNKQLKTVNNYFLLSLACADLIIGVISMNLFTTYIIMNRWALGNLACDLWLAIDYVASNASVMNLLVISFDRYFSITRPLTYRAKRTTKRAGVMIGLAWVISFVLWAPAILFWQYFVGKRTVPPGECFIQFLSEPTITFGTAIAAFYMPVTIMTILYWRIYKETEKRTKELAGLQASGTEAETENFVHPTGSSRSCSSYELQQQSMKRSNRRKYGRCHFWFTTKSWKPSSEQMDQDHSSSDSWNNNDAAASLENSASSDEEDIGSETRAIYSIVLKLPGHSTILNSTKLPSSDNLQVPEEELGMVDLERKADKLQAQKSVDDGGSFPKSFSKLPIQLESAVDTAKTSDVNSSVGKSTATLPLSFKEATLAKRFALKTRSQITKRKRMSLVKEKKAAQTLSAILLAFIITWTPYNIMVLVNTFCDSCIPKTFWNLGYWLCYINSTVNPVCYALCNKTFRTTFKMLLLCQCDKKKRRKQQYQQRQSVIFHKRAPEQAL

As for `Cc1cccc(S(=O)(=O)NCCCCN2CCN(c3nsc4ccccc34)CC2)c1` [Compound 3, N-(4-(4-(1,2-Benzothiazol-3-yl)piperazin-1-yl)butyl)-3-methylbenzenesulphonamide], the “σ [%]” value in assay [1] is recorded as 66%. Further, the inhibition at 1 µM amounted to 13% in [2]; 93% in [3]; 99% in assay [4]; 96% in assay [5]; 98% in assay [6]; 94% in assay [7]. Besides, the activation at 1 µM in assay [3] was -2%.

Regarding `O=S(=O)(NCCCCN1CCN(c2cccc3[nH]ccc23)CC1)c1cccc(F)c1` [Compound 28, 3-Fluoro-N-{4-[4-(1H-indol-4-yl)piperazin-1-yl]butyl}benzenesulphonamide], the “σ [%]” value in [1] worked out at 84%. For the same compound, the inhibition at 1 µM in assay [2] turned out to be 50%; in [8] it was 105%; in assay [3] it was 23%; in assay [9], 27%; in assay [4], 92%; in [5] it was 98%. The values for the inhibition at 1 µM in assay [6] and in [7] were 100% and 57%, respectively. Moreover, the activation at 1 µM turned out to be 49% in assay [8], 4% in assay [3] (setting [11]) and 4% in assay [9].

With `O=S(=O)(NCCCCN1CCN(c2noc3ccccc23)CC1)c1ccc2cc(Cl)ccc2c1` [Compound 79, N-[4-[4-(1,2-Benzoxazol-3-yl)piperazin-1-yl]butyl]-6-chloro-naphthalene-2-sulphonamide], the “σ [%]” value in assay [1] was 37%. In addition, the inhibition at 1 µM in assay [2] stood at 12%; in assay [8], 77%; in assay [3], 97%; in assay [9] it was 22%; in [4], 106%; in assay [5], 99%. Besides, the results for the inhibition at 1 µM in assay [6] and in [7] were 84% and 96%, respectively. The activation at 1 µM is 3% in [8], -2% in [3] (setting [11]) and 7% in assay [9].

As to `O=S(=O)(NCCCCN1CCN(c2noc3ccccc23)CC1)c1c[nH]c2ncccc12` [Compound 89, N-[4-[4-(1,2-Benzoxazol-3-yl)piperazin-1-yl]butyl]-1H-pyrrolo[2,3-b]pyridine-3-sulphonamide], in assay [1], the “σ [%]” value was −1%. The inhibition at 1 µM turned out to be 22% in assay [2]; 91% in assay [3]; 100% in [10]; 7% in assay [9]; 98% in [4]; 89% in assay [5]. Also, the inhibition at 1 µM stood at 71% in [6] and 85% in assay [7]. Besides, the activation at 1 µM is -2% in assay [3] (setting [11]), -1% in [10] and -10% in assay [9].

As to `O=S(=O)(NCCCCN1CCN(c2noc3ccccc23)CC1)c1ccc(-c2ccccc2)cc1` [Compound 283, N-[4-[4-(1,2-Benzoxazol-3-yl)piperazin-1-yl]butyl]-4-phenylbenzenesulphonamide], the “σ [%]” value in [1] was 34%. Besides, the inhibition at 1 µM is -4% in [2]; 93% in assay [3]; 100% in assay [10]; 25% in assay [9]; 109% in [4]; 99% in [5]. Besides, the values for the inhibition at 1 µM in assay [6] and in assay [7] were 89% and 96%, respectively. The activation at 1 µM in [3] (setting [11]) was -2%; in assay [10], 0%; in assay [9] it was 2%.

Consider `O=S(=O)(NCCCCN1CCN(c2cccc3[nH]ccc23)CC1)c1ccc2cc(Cl)ccc2c1` [Compound 358, 6-Chloro-N-[4-[4-(1H-indol-4-yl)piperazin-1-yl]butyl]naphthalene-2-sulphonamide], for which the “σ [%]” value in [1] is listed as 84%. Moreover, the inhibition at 1 µM in assay [2] amounted to 17%; in [8], 84%; in assay [3] it was 28%; in [9], 48%; in assay [4], 101%; in [5], 96%. In addition, the figures for the inhibition at 1 µM in assay [6] and in assay [7] were 100% and 74%, respectively. The activation at 1 µM was found to be 30% in assay [8], 10% in assay [3] (setting [11]) and 28% in assay [9].

Consider `O=c1[nH]c2cccc(N3CCN(CCCNS(=O)(=O)c4cccc5ccccc45)CC3)c2[nH]1` [Compound 423, N-[3-[4-(2-oxo-1,3-dihydrobenzimidazol-4-yl)piperazin-1-yl]propyl]naphthalene-1-sulphonamide], for which the “σ [%]” value in assay [1] amounted to 9%. Further, the inhibition at 1 µM was -1% in assay [2]; 96% in assay [8]; 70% in [10]; 69% in assay [4]; 97% in assay [5]; 99% in [6]. In assay [7], the inhibition at 1 µM is 16%. The activation at 1 µM was found to be 41% in assay [8] and 16% in assay [10].

As to `O=c1[nH]c2cccc(N3CCN(CCCNS(=O)(=O)c4ccc5ccccc5c4)CC3)c2[nH]1` [Compound 424, N-[3-[4-(2-oxo-1,3-dihydrobenzimidazol-4-yl)piperazin-1-yl]propyl]naphthalene-2-sulphonamide], the “σ [%]” value in [1] was −3%. For the same compound, the inhibition at 1 µM in [2] came out at 7%; in assay [8], 97%; in assay [3], 43%; in assay [10], 76%; in [4], 67%; in assay [5] it was 97%. In addition, the inhibition at 1 µM turned out to be 99% in [6] and 28% in assay [7]. Besides, the activation at 1 µM in assay [8] worked out at 44%; in assay [3] (setting [11]) it was 18%; in [10] it was 39%.

These data come from US8822517B2, “Arylosulfonamides for the treatment of CNS diseases” (Adamed SP. Z O.O., priority 2010, dated 2014).
